Laboratory results: ChEMBL document CHEMBL4813951 (Eur J Med Chem, 2021)

Columns and labels:
[1] = biological target: T1, Histamine H2 receptor (Homo sapiens, UniProt P25021); experiment: Displacement of [3H]UR-DE257 from human histamine H2 receptor expressed in sf9 insect cell membranes co-expressing GSalphaS incubated for 60 mins by microbeta scintillation counting method; parameters: species or system Membrane
[2] = biological target: Histamine H2 receptor (Cavia porcellus) (UniProt P47747); experiment: Agonist activity at guinea pig right atrium histamine H2 receptor assessed as intrinsic activity incubated for 30 mins in presence of cimetidine relative to histamine; assay type: functional, tissue-based; conditions: Right cardiac atrium, filed as agonist
Sequence of Histamine H2 receptor (Cavia porcellus) (P47747 whole entry): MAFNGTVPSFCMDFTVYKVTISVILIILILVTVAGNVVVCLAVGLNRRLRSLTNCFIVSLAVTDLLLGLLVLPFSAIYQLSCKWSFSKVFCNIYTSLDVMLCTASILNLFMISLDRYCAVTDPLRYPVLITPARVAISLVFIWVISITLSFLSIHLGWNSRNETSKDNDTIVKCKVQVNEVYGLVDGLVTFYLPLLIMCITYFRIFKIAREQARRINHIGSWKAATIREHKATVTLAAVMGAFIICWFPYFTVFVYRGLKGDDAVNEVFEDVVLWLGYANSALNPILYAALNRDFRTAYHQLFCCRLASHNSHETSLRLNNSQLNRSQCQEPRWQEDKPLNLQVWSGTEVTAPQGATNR

[3] = biological target: Histamine H1 receptor (Homo sapiens, UniProt P35367); experiment: Displacement of [3H]mepyramine from human histamine H1 receptor expressed in sf9 insect cell membranes co-expressing RGS4 incubated for 60 mins by microbeta scintillation counting method; parameters: species or system Membrane
Sequence of Histamine H1 receptor (P35367 whole entry): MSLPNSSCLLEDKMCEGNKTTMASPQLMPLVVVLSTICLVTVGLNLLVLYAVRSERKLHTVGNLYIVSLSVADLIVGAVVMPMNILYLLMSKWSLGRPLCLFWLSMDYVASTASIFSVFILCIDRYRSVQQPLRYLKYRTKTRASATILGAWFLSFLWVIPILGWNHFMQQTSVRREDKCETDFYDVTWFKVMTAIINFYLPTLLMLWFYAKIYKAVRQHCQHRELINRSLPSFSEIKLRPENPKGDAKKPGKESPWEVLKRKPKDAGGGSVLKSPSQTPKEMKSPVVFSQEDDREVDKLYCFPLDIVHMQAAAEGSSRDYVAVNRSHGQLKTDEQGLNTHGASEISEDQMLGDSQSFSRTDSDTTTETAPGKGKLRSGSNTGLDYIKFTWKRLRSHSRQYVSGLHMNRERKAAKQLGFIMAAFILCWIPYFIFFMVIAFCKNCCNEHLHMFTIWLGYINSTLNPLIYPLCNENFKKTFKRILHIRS

[4] = biological target: Histamine H2 receptor (Cavia porcellus, UniProt P47747); experiment: Agonist activity at guinea pig right atrium histamine H2 receptor assessed as increase in heart rate incubated for 30 mins in presence of cimetidine; assay type: functional, tissue-based, Right cardiac atrium
Sequence of Histamine H2 receptor (Cavia porcellus, UniProt P47747) (P47747 whole entry): as the sequence (P47747 whole entry) above

[5] = biological target: Histamine H3 receptor (Homo sapiens, UniProt Q9Y5N1); experiment: Displacement of [3H]UR-P129 from human histamine H3 receptor expressed in sf9 insect cell membranes co-expressing Galphai2/Gbeta1gamma2 incubated for 60 mins by microbeta scintillation counting method; parameters: species or system Membrane
Sequence of Histamine H3 receptor (Q9Y5N1 whole entry): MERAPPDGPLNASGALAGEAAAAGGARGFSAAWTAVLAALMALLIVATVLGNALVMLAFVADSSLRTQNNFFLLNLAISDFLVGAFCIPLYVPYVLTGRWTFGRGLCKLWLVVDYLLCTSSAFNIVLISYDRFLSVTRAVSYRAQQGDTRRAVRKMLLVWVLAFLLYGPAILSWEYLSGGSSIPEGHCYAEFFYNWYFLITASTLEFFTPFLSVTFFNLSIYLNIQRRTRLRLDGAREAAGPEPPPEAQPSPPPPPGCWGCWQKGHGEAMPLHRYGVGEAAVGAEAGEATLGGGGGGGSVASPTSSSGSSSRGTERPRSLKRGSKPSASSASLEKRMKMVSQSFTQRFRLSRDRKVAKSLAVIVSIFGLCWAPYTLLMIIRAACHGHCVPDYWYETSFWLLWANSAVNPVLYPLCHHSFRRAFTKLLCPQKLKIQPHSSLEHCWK

[6] = biological target: Histamine H4 receptor (Homo sapiens, UniProt Q9H3N8)
[7] = biological target: T2, D(3) dopamine receptor (Homo sapiens, UniProt P35462); experiment: Displacement of [3H]N-methylspiperone from human D3 receptor expressed in HEK293T cells co-expressing CRE-Luc incubated for 60 mins by microbeta scintillation counting method; assay type: cell-based
T2 sequence (P35462 whole entry): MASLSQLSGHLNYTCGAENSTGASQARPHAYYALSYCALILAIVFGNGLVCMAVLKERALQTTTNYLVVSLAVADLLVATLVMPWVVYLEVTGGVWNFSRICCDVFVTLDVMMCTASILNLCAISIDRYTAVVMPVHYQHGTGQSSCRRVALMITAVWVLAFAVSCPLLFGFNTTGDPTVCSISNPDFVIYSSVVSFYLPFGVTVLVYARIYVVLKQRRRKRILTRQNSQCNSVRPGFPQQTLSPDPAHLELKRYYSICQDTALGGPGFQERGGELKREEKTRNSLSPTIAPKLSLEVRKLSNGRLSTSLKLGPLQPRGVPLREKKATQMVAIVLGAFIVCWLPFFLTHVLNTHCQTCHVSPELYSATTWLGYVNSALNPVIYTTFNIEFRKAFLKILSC

[8] = biological target: T2, D(3) dopamine receptor; experiment: Agonist activity at […] expressed in HEK293T cells co-expressing ELucC by beta arrestin2 recruitment assay; assay type: functional, cell-based
[9] = biological target: T3, D(2) dopamine receptor (Homo sapiens, UniProt P14416); experiment: Displacement of [3H]N-methylspiperone from human D2L receptor expressed in HEK293T cells co-expressing CRE-Luc incubated for 60 mins by microbeta scintillation counting method; assay type: cell-based
T3 sequence (P14416 whole entry): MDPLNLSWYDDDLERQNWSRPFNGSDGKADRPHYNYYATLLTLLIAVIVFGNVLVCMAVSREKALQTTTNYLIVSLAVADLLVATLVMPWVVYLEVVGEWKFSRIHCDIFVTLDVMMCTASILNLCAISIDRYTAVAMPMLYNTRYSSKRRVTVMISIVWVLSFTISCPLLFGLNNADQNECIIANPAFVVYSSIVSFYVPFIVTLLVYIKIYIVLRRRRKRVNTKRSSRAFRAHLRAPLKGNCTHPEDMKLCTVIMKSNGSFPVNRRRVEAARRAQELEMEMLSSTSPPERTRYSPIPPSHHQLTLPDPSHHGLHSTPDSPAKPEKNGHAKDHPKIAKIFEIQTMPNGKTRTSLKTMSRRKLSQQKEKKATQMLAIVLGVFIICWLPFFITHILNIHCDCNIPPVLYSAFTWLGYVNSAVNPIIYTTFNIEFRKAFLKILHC

[10] = biological target: T1, Histamine H2 receptor; experiment: Agonist activity at human histamine H2 receptor expressed in HEK293T cells co-expressing ELucC by beta arrestin2 recruitment assay; assay type: functional, cell-based
[11] = biological target: T3, D(2) dopamine receptor; assay type: functional, cell-based, HEK293T
[12] = biological target: T1, Histamine H2 receptor; experiment: Agonist activity at human histamine receptor expressed in sf9 insect cell membranes co-exprssing GsalphaS incubated for 90 mins [35S]GTPgammaS binding based microbeta scintillation counting analysis; assay type: functional, Membrane
[13] = biological target: T1, Histamine H2 receptor; experiment: Agonist activity at human histamine H2 receptor expressed in sf9 insect cell membranes co-exprssing GsalphaS assessed as intrinsic activity at >=30 uM incubated for 90 mins [35S]GTPgammaS binding based microbeta scintillation counting analysis relative to histamine; assay type: functional; conditions: Membrane, filed as agonist, dose microM >=30, time 90.0 min

T1 sequence (P25021 whole entry): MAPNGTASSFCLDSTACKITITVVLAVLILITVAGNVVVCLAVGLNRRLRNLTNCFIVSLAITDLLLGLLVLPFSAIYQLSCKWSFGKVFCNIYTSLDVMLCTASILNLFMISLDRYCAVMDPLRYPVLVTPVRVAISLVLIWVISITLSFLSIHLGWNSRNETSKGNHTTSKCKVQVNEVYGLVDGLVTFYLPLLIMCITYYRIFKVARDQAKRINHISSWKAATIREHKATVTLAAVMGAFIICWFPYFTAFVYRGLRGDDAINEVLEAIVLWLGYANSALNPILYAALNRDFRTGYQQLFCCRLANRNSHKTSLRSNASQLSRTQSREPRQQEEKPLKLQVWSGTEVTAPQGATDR

Structure (SMILES)	Ki [1] [µM]	Intrinsic activity [2]	Ki [3] [µM]	Ki [5] [µM]	Ki [6] [µM]	Ki [7] [µM]	EC50 [8] [µM]	Ki [9] [µM]	EC50 [10] [µM]	EC50 [11] [µM]	EC50 [12] [µM]	Intrinsic activity [13]	EC50 [4] [µM]
Cc1nc(N)sc1CCCN/C(N)=N/C(=O)N[C@@H](C)c1ccccc1	0.0513	–	21.4	33.1	17.8	0.0245	0.229	–	–	–	–	–	0.0234
Cc1nc(N)sc1CCCN/C(N)=N/C(=O)NC(C)c1ccco1 (stereo not given)	0.0316	1	45.7	43.7	45.7	0.0174	0.102	1.7	0.234	1.07	–	–	0.00977
Cc1nc(N)sc1CCCN/C(N)=N/C(=O)NC(C)c1cccc(F)c1 (stereo not given)	0.00204	–	7.76	38.9	13.2	0.00871	0.0724	–	0.0646	–	–	–	0.0263
Cc1nc(N)sc1CCCN/C(N)=N/C(=O)NC[C@@H](C)c1ccccc1	0.102	0.98	9.55	26.9	13.5	–	–	–	–	–	–	–	0.0129
Cc1nc(N)sc1CCCN/C(N)=N/C(=S)NC[C@H](C)c1ccccc1	1.15	0.44	63.1	69.2	44.7	–	–	–	–	–	–	–	0.49
Cc1nc(N)sc1CCCN/C(N)=N/C(=O)NC1CCCCC1	0.17	–	24.5	–	31.6	–	–	–	0.389	–	0.148	–	–
Cc1nc(N)sc1CCCN/C(N)=N/C(=O)NC(C)c1ccc(F)cc1 (stereo not given)	0.0316	0.92	10.2	25.7	13.8	–	–	–	–	–	–	–	0.0234
Cc1nc(N)sc1CCCN/C(N)=N/C(=S)NC[C@@H](C)c1ccccc1	0.427	0.66	52.5	83.2	32.4	–	–	–	–	–	–	–	0.148
CCCNC(=O)/N=C(\N)NCCCc1sc(N)nc1C	0.105	–	28.8	44.7	87.1	–	–	–	0.17	–	0.178	0.79	–
Cc1nc(N)sc1CCCN/C(N)=N/C(=S)N[C@@H](C)c1ccccc1	0.339	0.65	77.6	81.3	55	–	–	–	–	–	–	–	0.224
Cc1nc(N)sc1CCCN/C(N)=N/C(=O)NC(c1ccccc1)C(F)(F)F (stereo not given)	0.229	0.85	53.7	31.6	17.4	–	–	–	–	–	–	–	0.0479
N/C(=N\C(=O)NCc1ccccc1)Nc1cccc(-c2csc(N)n2)c1	–	–	–	–	34.7	–	–	–	–	–	–	–	–
Cc1nc(N)sc1CCCN/C(N)=N/C(=S)N[C@H](C)c1ccccc1	0.115	0.87	110	64.6	26.9	0.0603	0.166	1.17	0.372	1.51	–	–	0.0891
Cc1nc(N)sc1CCCN/C(N)=N/C(=O)NCc1ccco1	0.0105	0.58	24	74.1	75.9	–	–	–	–	–	–	–	0.0117
Cc1nc(N)sc1CCCN/C(N)=N/C(=O)NCc1ccccc1	0.0692	–	6.17	19.5	19.1	0.0457	0.0339	0.603	0.1	1.66	0.0288	0.91	–
Cc1nc(N)sc1CCCN/C(N)=N/C(=O)Nc1ccccc1	3.16	–	–	–	22.4	–	–	–	3.39	–	0.525	0.59	–
Cc1nc(N)sc1CCCN/C(N)=N/C(=S)NC(c1ccccc1)c1ccccc1	0.603	0.67	46.8	43.7	23.4	–	–	–	–	–	–	–	0.0661
CCCCCCNC(=O)/N=C(\N)NC1CCc2nc(N)sc2C1 (stereo not given)	1.12	–	1.95	1.51	16.6	1.26	–	1.26	–	–	0.148	0.16	–
CCCN[C@@H]1CCc2nc(N)sc2C1 [DEXPRAMIPEXOLE]	13.8	–	–	–	–	–	–	–	39.8	–	8.51	–	–
Cc1nc(N)sc1CCCN/C(N)=N/C(=O)NCCc1ccccc1	0.158	–	–	–	14.8	–	–	–	0.166	–	0.0447	0.72	–
Cc1nc(N)sc1CCCN/C(N)=N/C(=O)NC(C)c1cccs1 (stereo not given)	0.0631	0.88	25.7	58.9	30.2	–	–	–	–	–	–	–	0.01
COc1ccc(C(C)NC(=O)/N=C(\N)NCCCc2sc(N)nc2C)cc1 (stereo not given)	0.0372	0.91	5.89	33.1	20	–	–	–	–	–	–	–	0.038
N/C(=N\C(=O)NCc1ccccc1)NC1CCc2nc(N)sc2C1 (stereo not given)	0.513	–	1.2	3.31	30.2	5.01	–	0.55	4.37	–	0.214	0.53	–
N/C(=N\C(=O)NCCc1ccccc1)Nc1cccc(-c2csc(N)n2)c1	–	–	–	–	30.2	–	–	–	–	–	–	–	–

Second part, led by results:

Ki [1] [µM]	Intrinsic activity [2]	Ki [3] [µM]	Ki [5] [µM]	Ki [6] [µM]	Ki [7] [µM]	EC50 [8] [µM]	Ki [9] [µM]	EC50 [10] [µM]	EC50 [11] [µM]	EC50 [12] [µM]	Intrinsic activity [13]	Structure (SMILES)	EC50 [4] [µM]
0.0288	0.93	17	30.9	12.9	–	–	–	–	–	–	–	Cc1nc(N)sc1CCCN/C(N)=N/C(=O)NC(C)c1ccccc1F (stereo not given)	0.0123
0.0871	0.76	5.25	10	4.9	–	–	–	–	–	–	–	Cc1nc(N)sc1CCCN/C(N)=N/C(=O)NCC(c1ccccc1)c1ccccc1	0.174
0.0302	0.87	2.88	12.9	8.13	–	–	–	–	–	–	–	Cc1nc(N)sc1CCCN/C(N)=N/C(=O)NC(C)c1ccc(Br)cc1 (stereo not given)	0.055
–	–	15.8	9.12	6.31	–	–	–	–	–	–	–	Cc1nc(N)sc1CCCN/C(N)=N/C(=O)NC(c1ccccc1)c1ccccc1	0.0398
0.0468	0.93	4.47	17.8	8.51	–	–	–	–	–	–	–	Cc1nc(N)sc1CCCN/C(N)=N/C(=O)NC(C)c1ccc(Cl)cc1 (stereo not given)	0.0245
0.0603	–	7.08	2.29	0.776	–	–	–	2.51	–	–	–	Cc1nc(N)sc1CCCN/C(N)=N/C(=O)NCC(C)CCCc1ccccc1 (stereo not given)	–
0.0724	–	1.66	3.24	3.63	–	–	–	0.132	–	0.0603	–	Cc1ccc(CC(C)CNC(=O)/N=C(\N)NCCCc2sc(N)nc2C)cc1 (stereo not given)	–
0.0708	–	3.8	7.41	3.72	0.132	0.302	–	0.302	–	0.0174	–	Cc1nc(N)sc1CCCN/C(N)=N/C(=O)NCC(C)CC1CCCCC1 (stereo not given)	–
0.0631	0.93	12.6	21.9	11.2	–	–	–	–	–	–	–	CCC(NC(=O)/N=C(\N)NCCCc1sc(N)nc1C)c1ccccc1 (stereo not given)	0.0107
0.0355	1.04	24.5	19.1	7.94	–	–	–	–	–	–	–	Cc1nc(N)sc1CCCN/C(N)=N/C(=O)NC(c1ccccc1)C(C)C (stereo not given)	0.0347
0.1	0.99	8.71	17	12	–	–	–	–	–	–	–	Cc1nc(N)sc1CCCN/C(N)=N/C(=O)NC[C@H](C)c1ccccc1	0.0257
0.0309	0.85	5.13	26.3	11.2	–	–	–	–	–	–	–	Cc1ccc(C(C)NC(=O)/N=C(\N)NCCCc2sc(N)nc2C)cc1 (stereo not given)	0.0224
0.126	0.61	21.9	14.5	8.13	–	–	–	–	–	–	–	Cc1nc(N)sc1CCCN/C(N)=N/C(=O)NC(C)c1ccc(OC(F)(F)F)cc1 (stereo not given)	0.724
0.0776	–	7.94	16.6	6.76	0.0646	0.0407	–	0.269	–	0.0288	–	CCC(CNC(=O)/N=C(\N)NCCCc1sc(N)nc1C)c1ccccc1 (stereo not given)	–
0.00447	–	10.7	10.5	4.27	–	–	0.447	0.178	1.05	–	–	CCCCCNC(=O)/N=C(\N)NCCCc1sc(N)nc1C	0.00575
